Data on two compounds can be found in patent US20040028753A1, “Inhalation of nitric oxide” (priority 2000, published 2004).

The test system of data set [1] is pigs with endotoxin-induced acute lung damage. On the procedure:
The Animal Research Ethics Committee of Uppsala University approved the study. Twentysix pigs of Swedish country breed, weighing 24-29 Kg, were used in the study. Before the transport from the farm, the pigs were sedated with a neuroleptic, azaperonum ([…], Janssen, Belgium), 40 mg intramuscularly (im). Anaesthesia was induced with atropine im (0.04 mg/Kg), tiletamin/zolazepam (ZOLETIL, Virbac Laboratories) (6 mg/Kg) and xylzry (ROMPUN, Bayer AG, Germany) (2.2 mg/Kg). After induction, a cannula was inserted in an ear vein and an opioid ([…], Antigen Pharmaceuticals Ltd, Roscrea, Ireland) (5 ug/Kg) was injected. Muscle relaxation was provided by pancuronium (PAVULON, Organon Technika AB, Göteborg, Sweden) ([…]). Anaesthesia was maintained with a continuous infusion of a hypnotic (chlomethiazole, HEMINEVRIN, Astra, Södertälje, Sweden) (400 mg/hour), pancuronium (2 mg/hour) and fentanyl (150 ug/hour) Repeated doses of fentanyl 0.2-0.5 mg i.v. were given as necessary. Depth of anaesthesia was considered to be adequate when skin incisions did riot cause any changes in heart rate or blood pressure. Pre-warmed (38° C.) isotonic saline 500 ml/hour was given for hydration. The animals were placed in the supine position (dorsal recumbency) for the remainder of the study.
A tracheotomy was performed after induction of anaesthesia and a cuffed tracheal tube (inner diameter 6 mm) was inserted. A volume-controlled ventilator (Siemens 900c) provided mechanical ventilation. Transducers built into the ventilator recorded airway pressure and minute ventilation. Respiratory frequency was maintained at 20 breaths per minute with tidal volume adjusted to maintain an end-tidal CO2 (PetCO2) between 36 and 41 mm Hg (4.8-5.4 kPa). The inspiratory time was 25%; an end-inspiratory pause 5% of the respiratory cycle was applied, as well as an end-expiratory pressure (PEEP) of 5-cm H2O. Inspired fraction of oxygen (FIO2) was 0.5.
A triple lumen balloon-tipped catheter (Swan Ganz no. 7F) was introduced via the right external jugular vein to the pulmonary artery for blood sampling and pressure recordings. […] The right carotid artery was cannulated for blood sampling and recording of arterial blood pressure.
The arterial, central venous and pulmonary artery catheters were connected to appropriate pressure transducers (Sorenson Transpac.Transducers, Abbott Critical Care Systems, Ill, USA) and pressures were recorded on a Marquette 7010 monitor (Marquette Electronics Inc., WI USA). Mean arterial pressure (MAP), mean pulmonary artery pressure (MPAP), heart rate (HR), central venous pressure (CVP), pulmonary capillary wedge pressure (PCWP) and cardiac output (Qt) were recorded. Airway pressures were registered from the ventilator. Vascular pressures were averaged over the whole respiratory cycle and the mid-thorax was used as the zero reference level.
Qt was measured.by means of thermodilution: 10 ml of ice cold isotonic saline were injected as a bolus and the Qt was computed (cardiac output computer Marquette 7010, Marquette Electronics Inc., WI, USA). At least three injections were given for each measurement and the mean was calculated. The injections were evenly distributed over the respiratory cycle. The expired minute volume was recorded at each measurement. Mixed venous and arterial blood samples were collected for blood gas analysis (ABL 3, Radiometer, Copenhagen, Denmark), oxygen saturation and hemoglobin concentration (OSM 3, Radiometer, Copenhagen, Denmark). Five-ml arterial blood were collected at the same time, the plasma was separated for biochemical analysis (see below).
Acute lung damage was induced by intravenous infusion of endotoxin 25 ug/kg/hour for 3 hours, and then maintained at 10 ug/kg/hour during the remaining experimental period.
Thirty minutes after surgery, baseline measurements of hemodynamics were made, blood samples were taken and blood was collected for subsequent biochemical analysis.

The next data set relates to TXB2. The data set can be described thus: Plasma TXB2 concentration by enzyme immunoassay. The data set is classed as in vivo, pig. As for the experimental part:
The injections were evenly distributed over the respiratory cycle. The expired minute volume was recorded at each measurement.
Blood was collected in pre-chilled tubes containing EDTA (10 mM, final concentration), centrifuged (10 min 40C). Measurements of TXB2 concentration were performed using a commercially available enzyme immunoassay (Thromboxane B2 EIA kit Cayman Chemical, MI, USA, Ca 519031). Serum was collected from each test tube and stored at −70° C. until TXB2 measurements were performed. To ensure that all samples were free of organic solvents, the serum was purified before its addition to the assay well. Purification of TXB2 was performed as the Cayman Chemical Introduction, by first adding 10,000 cpm of tritium-labeled TXB2 (3H-TXB2) to each sample, and then 2 ml ethanol, followed by votex 4° C. for 5 minutes, and centrifugation at 1500 g for 10 minutes to remove precipitated proteins. The supernatant was collected and mixed with ultra-pure water. The sample was passed through a C-18 reverse phase cartridge. Ten percent of the eluate was removed for scintillation counting.
Enzyme immunoassays were performed in duplicate by mixing 50 μl purified sample with 50 μl tracer and 50 μl antiserum on micro-plates. After 18 hours incubation, 200 μl Ellmans-Reagents was added to start the enzymatic reaction, and the absorption of individual vials was measured 30 minutes later at 405 nm using a photometry micro-plate reader (Thermo Max, Molecular Devices). Concentrations of TXB2 in the samples were estimated from standard curves obtained by nonlinear regression to absorption of eight known TXB2 concentrations ranging from 7.5 to 1000 pg/ml. The intra-assay and inter-assay coefficients of variation were <10%. For further details, see the TXB2 Enzyme immunoassay Kit 519031 Cayman Chemical manual.

A further data set has as its system COX-1. The data set can be described thus: COX-1 expression in lung tissue by Western blotting. In kind it is in vivo, pig. As to conditions: 3 and 5 hour INO trial, no-block group. On the procedure:
(§1) The lung tissue blocks were rinsed by PBS at 4° C. The total protein of lung tissue was extracted by homogenization (Ultra-Turrax, Jenke and Kunkel, IKA Labortechnik, Staufen, Germany) in 5 volumes of ice-cold 0.05M Tris buffer (pH 7.4) containing 0.5 mM phenylmethyl-sulfonylfluoride to inhibit proteolysis. The supernatant was collected and stored at −80° C. until the analysis. The concentration of whole protein in the supernatant was determined by the method of Lowry. Then the protein was fractionated by sodium dodecyl sulfate-polyacrylamide gel electrophoresis, and electrophoretically transferred to a nitrocellulose membrane. The blot was blocked with 5% BSA in TBS overnight at 4° C. and then incubated with anti-COX-1 (1:2500, Cayman Chemical, MI, USA, Ca 160108), COX-2 (1:1500, Cayman Chemical, MI, USA, Ca 160108) in TBS containing 1% BSA over night at 4° C. […] The blot was washed 5 times in TBS, and the antigen-antibody complex was detected on photographic film, using enhanced chemiluminescence reagent (Amersham, Arlington Heights, Ill., USA). All the experiments were carried out three times, and the bands from each experiment were analyzed using the program of National Institutes of Health (NIH) Image 1.6 C for statistical analysis.

Another data set deals with COX-2. The data set can be described thus: COX-2 expression in lung tissue by Western blotting. In kind it is in vivo, pig. The following applies: no-block group. As for the experimental part: as §1
Where [2] appears, read: inhalation of 30 ppm NO after 3 hours of endotoxin infusion (first trial).
Setting [3] is: second trial, after 4 hours of endotoxin infusion, 30 ppm NO.
[4] abbreviates: second trial, five minutes after discontinuation of NO inhalation.

On to `O=C(O)Cc1ccccc1Nc1c(Cl)cccc1Cl` [Diclofenac], for which the “effect of pretreatment on MPAP” value in data set [1] (Diclofenac in saline 300 mg/Kg iv bolus 30 minutes before NO inhalation, endotoxin infusion) is “lowered MPAP”.
Consider `[N]=O` [NO, nitric oxide], for which the “time to MPAP increase after discontinuation of NO inhalation” value in data set [1] (first trial) is at most 5 min. In data set [1] (first trial (3 hours of endotoxin infusion)), the “PaO2 rebound on discontinuation of NO inhalation” value is “did not show a clear rebound phenomenon”. Further, in data set [1] (setting [2]), the “decrease in MPAP” value is 28% and the “increase in PaO2” value stood at 54%. For the same compound, the “increase in respiratory resistance during the endotoxin infusion” value in data set [1] (pig, in vivo) is on record as “did not prevent or attenuate the rise”. In data set [1] (setting [3]), the “MPAP response to NO inhalation in second trial compared with first trial one hour earlier” value is “weaker”; the “PaO2 response to NO inhalation in second trial compared with first trial one hour earlier” value is “weaker, and no longer significant”. Besides, in data set [1] (setting [4]), the “MPAP increase above the pre-NO level after discontinuation” value amounted to 26% and the “PaO2 after discontinuation relative to pre-NO level” value is “fallen to below the pre-NO level”. The “plasma TXB2 level during NO inhalation” value in the data set with TXB2 (first INO trial) was “did not change”. In the data set on TXB2 (first INO trial, five minutes after withdrawal, p<0.05 in no-block group), the “plasma TXB2 after INO withdrawal” value is on record as “increased”. In addition, the “plasma TXB2 after second INO withdrawal” value with TXB2 (second INO trial) is given as “further increase”. Further, the “effect of inhalation or discontinuation on COX-1 expression” value in the data set on COX-1 is recorded as “did not affect”. Moreover, the “effect of thirty minutes of INO on COX-2 expression” value with COX-2 (3 and 5 hour inhalation test) is given as “had no effect”. Moreover, in the data set with COX-2, the “COX-2 expression after the INO periods” value was “remained increased”.
